Results from patent publication US9504675B2, “Alpha-ketoheterocycles and methods of making and using” (The Scripps Research Institute, priority 2011, dated 2016).
pKi: −log10 of the molar value.

target: T1, recombinant rat FAAH (rFAAH) (Rattus norvegicus, UniProt P97612); test: Enzyme assay: inhibition of purified recombinant rat FAAH, 14C-oleamide hydrolysis, Ki by Dixon plot; format: biochemical; conditions: (S)-enantiomer
T1 construct: The truncated rat FAAH (rFAAH) was expressed in E. coli and purified; made in house; host or cells: Escherichia coli
T1 sequence (P97612 30-579 limits assumed): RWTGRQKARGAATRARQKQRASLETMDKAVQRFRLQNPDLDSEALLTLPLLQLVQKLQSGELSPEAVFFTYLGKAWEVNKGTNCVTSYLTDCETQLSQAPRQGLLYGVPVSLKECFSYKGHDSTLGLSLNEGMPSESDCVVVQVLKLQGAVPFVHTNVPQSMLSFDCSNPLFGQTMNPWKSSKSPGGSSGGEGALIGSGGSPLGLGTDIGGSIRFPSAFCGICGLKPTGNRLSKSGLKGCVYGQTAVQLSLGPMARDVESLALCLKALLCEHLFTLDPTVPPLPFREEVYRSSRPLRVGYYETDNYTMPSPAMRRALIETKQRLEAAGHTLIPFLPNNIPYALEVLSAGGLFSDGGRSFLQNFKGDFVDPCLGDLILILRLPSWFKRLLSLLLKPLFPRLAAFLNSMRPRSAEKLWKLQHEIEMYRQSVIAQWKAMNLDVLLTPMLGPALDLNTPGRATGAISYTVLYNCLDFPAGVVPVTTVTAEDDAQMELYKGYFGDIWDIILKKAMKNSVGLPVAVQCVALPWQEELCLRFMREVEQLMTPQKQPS
Description: Enzyme assays were performed at 20-23° C. with purified recombinant rat FAAH expressed in Escherichia coli or with solubilized COS-7 membrane extracts from cells transiently transfected with human FAAH cDNA (where specifically indicated) in a buffer of 125 mM Tris/1 mM EDTA/0.2% glycerol/0.02% Triton X-100/0.4 mM Hepes, pH 9.0.
^14C-labeled oleamide was prepared from ^14C-labeled oleic acid. The truncated rat FAAH (rFAAH) was expressed in E. coli and purified. The purified recombinant rFAAH was used in the inhibition assays unless otherwise indicated. The full-length human FAAH (hFAAH) was expressed in COS-7 cells as described, and the lysate of hFAAH-transfected COS-7 cells was used in the inhibition assays where explicitly indicated.
The inhibition assays were performed as follows. […] The enzyme reaction was terminated by transferring 20 μL of the reaction mixture to 500 μL of 0.1 N HCl at three different time points. The ^14C-labeled oleamide (substrate) and oleic acid (product) were extracted with EtOAc and analyzed by TLC as detailed. The Ki of the inhibitor was calculated using a Dixon plot as described (standard deviations are provided in the Supporting Information tables).

| SMILES | improvement in potency relative to the corresponding oxazole 9 |
| --- | --- |
| O=C(c1ncco1)C1CCc2ccccc2C1 (stereo not drawn) [Compound 37, Oxazol-2-yl(1,2,3,4-tetrahydronaphthalen-2-yl)methanone] | 4-5 fold |

same assay, conditions: Ki, Table 2, (R)-enantiomer, 1,2,3,4-tetrahydronaphthalene C2 acyl side chain

| SMILES | pKi |
| --- | --- |
| O=C(c1ncc(-c2ccccn2)o1)C1CCc2cc(OCc3ccccc3)ccc2C1 (single isomer, unassigned) [(R)-18, (6-(Benzyloxy)-1,2,3,4-tetrahydronaphthalen-2-yl)(5-(pyridin-2-yl)oxazol-2-yl)methanone] | 6.52 |
| O=C(c1ncc(-c2ccccn2)o1)C1CCc2cc(Oc3ccccc3)ccc2C1 (single isomer, unassigned) [(R)-12, (6-Phenoxy-1,2,3,4-tetrahydronaphthalen-2-yl)(5-(pyridin-2-yl)oxazol-2-yl)methanone] | 6.54 |
| O=C(O)c1cccc(-c2cnc(C(=O)C3CCc4cc(Oc5ccccc5)ccc4C3)o2)n1 (single isomer, unassigned) [(R)-14, 6-(2-(6-Phenoxy-1,2,3,4-tetrahydronaphthalene-2-carbonyl)oxazol-5-yl)picolinic acid] | 6.66 |
| O=C(c1ncco1)C1CCc2cc(Oc3ccccc3)ccc2C1 (single isomer, unassigned) [(R)-9, Oxazol-2-yl(6-phenoxy-1,2,3,4-tetrahydronaphthalen-2-yl)methanone] | 6.39 |
| COC(=O)c1cccc(-c2cnc(C(=O)C3CCc4cc(Oc5ccccc5)ccc4C3)o2)n1 (single isomer, unassigned) [(R)-13, Methyl 6-(2-(6-Phenoxy-1,2,3,4-tetrahydronaphthalene-2-carbonyl)oxazol-5-yl)picolinate] | 6.06 |
| O=C(c1ncc(-c2ccccn2)o1)C1CCc2cc(-c3ccccc3)ccc2C1 (single isomer, unassigned) [(R)-6, (6-Phenyl-1,2,4-tetrahydronaphthalen-2-yl)(5-(pyridin-2-yl)oxazol-2-yl)methanone] | 6.62 |
| N#Cc1cnc(C(=O)C2CCc3cc(Oc4ccccc4)ccc3C2)o1 (single isomer, unassigned) [(R)-11, 2-(6-Phenoxy-1,2,3,4-tetrahydronaphthalene-2-carbonyl)oxazole-5-carbonitrile] | 7.27 |
| N#Cc1cnc(C(=O)C2CCc3cc(-c4ccccc4)ccc3C2)o1 (single isomer, unassigned) [(R)-5, 2-(6-Phenyl-1,2,3,4-tetrahydronaphthalene-2-carbonyl)oxazole-5-carbonitrile] | 7.21 |
| O=C(c1ncco1)C1CCc2cc(-c3ccccc3)ccc2C1 (single isomer, unassigned) [(R)-3, Oxazol-2-yl(6-phenyl-1,2,3,4-tetrahydronaphthalen-2-yl)methanone] | 6.34 |

same assay, conditions: Ki, Table 2, (S)-enantiomer, 1,2,3,4-tetrahydronaphthalene C2 acyl side chain

| SMILES | pKi |
| --- | --- |
| O=C(c1ncco1)C1CCc2cc(OCc3ccccc3)ccc2C1 (single isomer, unassigned) [(S)-15, (6-(Benzyloxy)-1,2,3,4-tetrahydronaphthalen-2-yl)(oxazol-2-yl)methanone] | 8.21 |
| N#Cc1cnc(C(=O)C2CCc3cc(OCc4ccccc4)ccc3C2)o1 (single isomer, unassigned) [(S)-17, 2-(6-(Benzyloxy)-1,2,3,4-tetrahydronaphthalene-2-carbonyl)oxazole-5-carbonitrile] | 8.49 |
| O=C(c1ncc(-c2ccccn2)o1)C1CCc2cc(Oc3ccccc3)ccc2C1 (single isomer, unassigned) [(S)-12, (6-Phenoxy-1,2,3,4-tetrahydronaphthalen-2-yl)(5-(pyridin-2-yl)oxazol-2-yl)methanone] | 8.36 |
| COC(=O)c1cccc(-c2cnc(C(=O)C3CCc4cc(-c5ccccc5)ccc4C3)o2)n1 (single isomer, unassigned) [(S)-7, Methyl 6-(2-(6-Phenyl-1,2,3,4-tetrahydronaphthalene-2-carbonyl)oxazol-5-yl)picolinate] | 7.57 |
| COC(=O)c1cnc(C(=O)C2CCc3cc(Oc4ccccc4)ccc3C2)o1 (single isomer, unassigned) [(S)-10, Methyl 2-(6-Phenoxy-1,2,3,4-tetrahydronaphthalene-2-carbonyl)oxazole-5-carboxylate] | 8.27 |
| COC(=O)c1cccc(-c2cnc(C(=O)C3CCc4cc(OCc5ccccc5)ccc4C3)o2)n1 (single isomer, unassigned) [(S)-19, Methyl 6-(2-(6-(Benzyloxy)-1,2,3,4-tetrahydronaphthalene-2-carbonyl)oxazol-5-yl)picolinate] | 7.74 |
| COC(=O)c1cnc(C(=O)C2CCc3cc(OCc4ccccc4)ccc3C2)o1 (single isomer, unassigned) [(S)-16, Methyl 2-(6-(Benzyloxy)-1,2,3,4-tetrahydronaphthalene-2-carbonyl)oxazole-5-carboxylate] | 8.54 |
| N#Cc1cnc(C(=O)C2CCc3cc(Oc4ccccc4)ccc3C2)o1 (single isomer, unassigned) [(S)-11, 2-(6-Phenoxy-1,2,3,4-tetrahydronaphthalene-2-carbonyl)oxazole-5-carbonitrile] | 8.89 |
| O=C(O)c1cccc(-c2cnc(C(=O)C3CCc4cc(-c5ccccc5)ccc4C3)o2)n1 (single isomer, unassigned) [(S)-8, 6-(2-(6-Phenyl-1,2,3,4-tetrahydronaphthalene-2-carbonyl)oxazol-5-yl)picolinic acid] | 7.41 |
| O=C(c1ncc(-c2ccccn2)o1)C1CCc2cc(OCc3ccccc3)ccc2C1 (single isomer, unassigned) [(S)-18, (6-(Benzyloxy)-1,2,3,4-tetrahydronaphthalen-2-yl)(5-(pyridin-2-yl)oxazol-2-yl)methanone] | 8.49 |

same assay, conditions: Ki, Table 3, (R)-enantiomer, indane C2 acyl side chain

| SMILES | pKi |
| --- | --- |
| O=C(c1ncc(-c2ccccn2)o1)C1Cc2ccc(Oc3ccccc3)cc2C1 (single isomer, unassigned) [(R)-27, (5-Phenoxyindan-2-yl)(5-(pyridin-2-yl)oxazol-2-yl)methanone] | 7.38 |
| O=C(c1ncco1)C1Cc2ccc(Oc3ccccc3)cc2C1 (single isomer, unassigned) [(R)-26, Oxazol-2-yl(5-phenoxyindan-2-yl)methanone] | 6.70 |
| O=C(c1ncc(-c2ccccn2)o1)C1Cc2ccc(OCc3ccccc3)cc2C1 (single isomer, unassigned) [(R)-31, (5-(Benzyloxy)indan-2-yl)(5-(pyridin-2-yl)oxazol-2-yl)methanone] | 6.96 |

same assay, conditions: Ki, Table 3, racemate (enantiomers not separable), indane C2 acyl side chain

| SMILES | pKi |
| --- | --- |
| COC(=O)c1cccc(-c2cnc(C(=O)C3Cc4ccc(-c5ccccc5)cc4C3)o2)n1 (racemic) [Compound 24, Methyl 6-[2-(5-Phenylindane-2-carbonyl)oxazol-5-yl]pyridine-2-carboxylate] | 8.21 |

same assay, conditions: Ki, Table 3, tentatively assigned (S)-enantiomer, indane C2 acyl side chain

| SMILES | pKi |
| --- | --- |
| O=C(c1ncc(-c2ccccn2)o1)C1Cc2ccc(Oc3ccccc3)cc2C1 (single isomer, unassigned) [(S)-27, (5-Phenoxyindan-2-yl)(5-(pyridin-2-yl)oxazol-2-yl)methanone] | 8.68 |
| O=C(c1ncc(-c2ccccn2)o1)C1Cc2ccc(OCc3ccccc3)cc2C1 (single isomer, unassigned) [(S)-31, (5-(Benzyloxy)indan-2-yl)(5-(pyridin-2-yl)oxazol-2-yl)methanone] | 8.85 |
| O=C(O)c1cccc(-c2cnc(C(=O)C3Cc4ccc(OCc5ccccc5)cc4C3)o2)n1 (single isomer, unassigned) [(S)-33, 6-(2-(5-(Benzyloxy)indane-2-carbonyl)oxazol-5-yl)picolinic acid] | 7.29 |

same assay, conditions: Ki, Table 4, (S)-enantiomer, additional FAAH inhibitors

| SMILES | pKi |
| --- | --- |
| COC(=O)c1nnc(C(=O)C2CCc3cc(Oc4ccccc4)ccc3C2)o1 (single isomer, unassigned) [(S)-35, Methyl 5-(6-Phenoxy-1,2,3,4-tetrahydronaphthalene-2-carbonyl)-[1,3,4]oxadiazole-2-carboxylate] | 8.82 |
| O=C(c1ncc(-c2ccccn2)o1)C1CCc2ccccc2C1 (single isomer, unassigned) [(S)-38, (5-(Pyridin-2-yl)oxazol-2-yl)(1,2,3,4-tetrahydronaphthalen-2-yl)methanone] | 6.37 |

same assay, conditions: Ki, first of the two enantiomers, text b169, enantiomer distinction 5.1 vs 12 μM

| SMILES | pKi |
| --- | --- |
| O=C(c1ncco1)C1CCc2ccccc2C1 (stereo not drawn) [Compound 37, Oxazol-2-yl(1,2,3,4-tetrahydronaphthalen-2-yl)methanone] | 5.29 |

same assay, conditions: Ki, second of the two enantiomers, text b169, enantiomer distinction 5.1 vs 12 μM

| SMILES | pKi |
| --- | --- |
| O=C(c1ncco1)C1CCc2ccccc2C1 (stereo not drawn) [Compound 37, Oxazol-2-yl(1,2,3,4-tetrahydronaphthalen-2-yl)methanone] | 4.92 |

same assay, conditions: Table 4, meso indane derivatives without aryl substituent; read-out: Ki

| SMILES | pKi |
| --- | --- |
| O=C(c1ncco1)C1Cc2ccccc2C1 [Compound 39, (Indan-2-yl)(oxazol-2-yl)methanone] | 5.15 |

same assay, conditions: ratio of FAAH inhibition between enantiomers

| SMILES | potency of more active (S)-enantiomer over (R)-enantiomer |
| --- | --- |
| O=C(c1ncco1)C1CCc2ccccc2C1 (stereo not drawn) [Compound 37, Oxazol-2-yl(1,2,3,4-tetrahydronaphthalen-2-yl)methanone] | ca. 2 fold |
